Experimental data taken from publication PMC12040169 (PLOS Biology, 2025).

Assay: in vitro
Details: human, hela cells, % viability

Structure (SMILES)	viability at 28.5 h, 10 µM [%]
O=C(NCc1cc(Br)ccc1F)C1CC(=O)N(Cc2ccccn2)C1 (centres unmarked) [CBK305242]	85.7
Cc1nn(C)c(C)c1NC(=O)COc1ccc2c(c1)CCCC2=O [CBK304963]	98.5
O=C1CC(c2ccccc2)c2c(n3ncnc3[nH]c2=O)N1 (centres unmarked) [CBK287912]	89.4
CCOc1ccc(-c2cnc(SCC(=O)O)nc2N)cc1 [CBK269928]	105
COc1cc(C(=O)O)ccc1Oc1cnn(-c2ccccc2)c(=O)c1Cl [CBK287032]	94.9
Cc1cc(S(=O)(=O)NCCC#N)c(C)cc1Cl [CBK043680]	113
Cc1nc(N)c(CNC2CCCCC2)c(O)n1 [CBK019809]	112
COC(=O)[C@H]1CN(C(=O)c2ccncc2)C[C@@H]1c1ccc(F)cc1 [CBK283509]	94.2
Cc1ccc(C2=CCN(CC(=O)Nc3nccs3)CC2)o1 [CBK283557]	93.7
Cc1nncn1-c1ccc(Cl)cc1C(=O)c1ccccc1Cl [CBK012372]	101
Cc1cccnc1C(Cc1ccsc1)NC(=O)CCc1ccno1 (centres unmarked) [CBK284804]	86.7
O=C(NCCN1CCCC1)C1CCCN(c2nc3c(-c4ccccc4)csc3c(=O)[nH]2)C1 (centres unmarked) [CBK215507]	109
O=C(Cc1nc2ccccc2[nH]1)N1CCOCC1 [CBK019505]	93.7
CCOc1ccc(NC(=O)C(C)Sc2nc3ccc(F)cc3[nH]2)cc1 (centres unmarked) [CBK266047]	107
COC(=O)[C@H]1Cc2cc3c(cc2[C@H]1c1cc(OC)c(OC)c(OC)c1)OCO3 [CBK200105]	54.8
Cc1ccc(NC(=O)C(=O)NCCCn2ccnc2)cc1Cl [CBK264238]	92.2
O=C(COc1cccc2ccccc12)NNC(=O)Cc1ccc(Cl)cc1 [CBK262988]	112
O=[N+]([O-])c1ccc(F)cc1NS(=O)(=O)c1ccccc1 [CBK000674]	93.1
O=C(Nc1ccccc1)OCC(CN1CCCCC1)OC(=O)Nc1ccccc1 (centres unmarked) [CBK023067C]	103
CSCC[C@H](NC(=O)OC(C)(C)C)C(=O)NCc1csc(-c2ccccc2)n1 [CBK092345]	88
C=CCn1c2ccccc2c2nnc(SCC(=O)N3c4ccccc4Sc4ccccc43)nc21 [CBK263237]	106
O=C1CC(c2nc3ccccc3n2CCc2ccccc2)CN1c1ccccc1 (centres unmarked) [CBK266311]	101
Cc1nn(-c2ccccc2)c(Cl)c1CN1C(=O)NC2(CCCC2)C1=O [CBK305070]	91.9

Structure (SMILES)	viability at 28.5 h, 10 µM [%]
Cc1ncc(CO)c(CN)c1O [CBK278211C]	86.8
O=C(CCn1c(C(F)F)cc2cccnc21)NCc1cccnc1 [CBK285066]	91.9
CC(C)N1CCC(=NNC(=O)COc2ccc(Cl)cc2Cl)CC1 [CBK262614]	83.2
O=C1CC(c2ccco2)Cc2c1cnn2-c1ccccc1 (centres unmarked) [CBK287860]	95.8
COc1ccccc1-c1nn2c(Cn3cnc4ccccc43)nnc2s1 [CBK268218]	93
CCOC(=O)c1sc(Sc2nnc(C(F)(F)F)n2C)c2c1CC(C)(C)CC2=O [CBK005649]	101
COc1ccc(NC(=O)c2cc(C(F)(F)F)cc(C(F)(F)F)c2)cn1 [CBK057634]	85.1
CSCCC(=O)Nc1ccc2c(ccn2Cc2ccccc2)c1 [CBK159732]	69.4
CCN(CC)CCn1c(=N)n(Cc2ccc(C(C)(C)C)cc2)c2ccccc21 [CBK268803B]	82.9
COc1ccc(C(=O)Nc2ccc3oc(-c4cccc(C)c4)nc3c2)cc1Br [CBK261944]	100
C=CCn1c(SCc2nnc(-c3ccccc3)o2)nnc1C(O)c1ccccc1 (centres unmarked) [CBK267368]	110
Cc1cc(C(=O)NCCc2ccc(S(N)(=O)=O)cc2)ccc1[N+](=O)[O-] [CBK264390]	105
CCN1CCN(C(=O)C2CC=CCC2C(=O)O)CC1 (centres unmarked) [CBK270295]	91.6
COc1cc2c(cc1OC)C(c1ccccc1)N(Cc1ccc(OCCO)cc1)CC2 (centres unmarked) [CBK286359]	80
CC(NC(=O)CN1CCCCCC1=O)c1cc2cc(Cl)ccc2o1 (centres unmarked) [CBK281448]	87.7
O=C(/C=C/c1cccnc1)Nc1ccccc1N1CCNCC1 [CBK034136T]	102
O=C(NCc1ccc2c(c1)OCO2)N1CCCC(CO)C1 (centres unmarked) [CBK156034]	104
O=C(NCc1ccccc1)c1cnsn1 [CBK267302]	90.8
O=C(NCc1ccccc1OC1CCNC1)c1cnccn1 (centres unmarked) [CBK029462T]	101
CCCN(C(=O)OC(C)(C)C)C1CCc2[nH]c(=O)c(C#N)cc2C1 (centres unmarked) [CBK023470]	99.7
O=C(CCn1ccnc1)NCC1Cc2ccccc2O1 (centres unmarked) [CBK283062]	81
O=C1CCC(=O)N1CCOc1nccnc1OC1CCN(CCOc2ccccc2)CC1 [CBK084354]	101
Cc1nc(C(=O)N2CCn3nc(C(O)c4ccccc4)cc3C2)c(C)s1 (centres unmarked) [CBK307474]	92.5

Structure (SMILES)	viability at 28.5 h, 10 µM [%]
COc1ccc2[nH]cc(CCNC(=O)N3CCCC(C(=O)O)C3)c2c1 (centres unmarked) [CBK161351]	108
O=C(O)c1ccc(NC2OC(CO)C(O)C2O)cc1 (centres unmarked) [CBK218836]	95.9
COc1cc(NC(=O)N2CCC(C(=O)O)CC2)cc(OC)c1OC [CBK156076]	97.8
CC(C)CCNC(=O)N1CCNC(=O)C1 [CBK155874]	98.3
COc1ccc(OC[C@@H](N)C(C)C)cc1 [CBK284299]	93.9
COc1ccc2[nH]cc(CCNC(=O)c3ccc4nc[nH]c4c3)c2c1 [CBK122714]	94.5
O=C(O)c1cccc(NC(=O)c2cccc(S(=O)(=O)Nc3ccc(Cl)cc3)c2)c1 [CBK261261]	92.6
Cc1cc(C2(C(F)(F)F)C=C3c4ccccc4CC(C)(C)N3C2=O)cc(C)c1O (centres unmarked) [CBK017463]	99.2
c1cnc(OC2CCN(Cc3ccc4c(c3)OCO4)CC2)c(OCCN2CCOCC2)n1 [CBK082925T]	115
CC(C)c1ccc(NC(=O)CSc2nnc(Cc3cccc4ccccc34)o2)cc1 [CBK267371]	88.7
CN1CCN(C(=O)c2ccc(-c3cncc(-c4cc5ccccc5[nH]4)n3)c(F)c2)CC1 [CBK144906]	92.8
Cc1cc(NC(=O)CN(C)Cc2cnn(-c3ccccc3)c2)on1 [CBK305622]	92.5
CC(=O)Nc1ccc(S(=O)(=O)Nc2ccc(S(=O)(=O)Nc3ccc(C)c(C)c3)cc2)cc1 [CBK264643]	101
COc1cccc(NC(=O)NC(=O)C2CCN(C(C)C)CC2)c1 [CBK034798]	89.6
COCCOC(=O)N1CCC(C(=O)NC(c2ccc(Cl)cc2)c2cccs2)CC1 (centres unmarked) [CBK059702]	104
Cn1c(Cc2ccccc2)nnc1SCCC(=O)Nc1ccccc1 [CBK268874]	91.3
CCC(=O)N1CCC[C@@H]1Cn1nc(-c2cccs2)ccc1=O [CBK282304]	84.8
CCn1c(COc2ccc(C(=O)O)cc2)nc2ccccc21 [CBK267647]	91.7
O=[N+]([O-])c1ccc(N2CCN(S(=O)(=O)c3ccccc3)CC2)cc1NCc1cccnc1 [CBK264415]	96.5
O=C(c1ccccc1)N1CCCC(c2cccc(Cc3ccc(Cl)cc3)n2)C1 (centres unmarked) [CBK286502]	99.5
COc1ccc(Cl)cc1S(=O)(=O)N1CCC(C(=O)NCCCO)CC1 [CBK269835]	99
O=C1CCCN1c1ccc(S(=O)(=O)NC2C3CCCCC32)cc1 (centres unmarked) [CBK282842]	101
Nc1n[nH]c(=O)c2c1ncn2[C@H]1C[C@@H](O)[C@@H](CO)O1 [CBK201169]	93.7

Structure (SMILES)	viability at 28.5 h, 10 µM [%]
CCOC(=O)c1cc(NC(=O)CSc2nc3ccccc3[nH]2)ccc1Cl [CBK266557]	99.8
CCCCN(CC)S(=O)(=O)c1ccc(-n2ncc(Cl)c(Cl)c2=O)cc1 [CBK305036]	6.38
c1ccc(CCN2CCN(CC3COc4ccccc4O3)CC2)cc1 (centres unmarked) [CBK138342]	86
O=C(O)CCC(=O)N1CCC(Cn2cncn2)(C2CCCCC2)CC1 [CBK136809]	94.8
O=C(c1n[nH]c2c1CCC2)N1CCC(c2ccccc2)C1 (centres unmarked) [CBK281851]	87.9
O=C(CCS(=O)(=O)Cc1ccccc1)Nc1cc(C(F)(F)F)ccc1Cl [CBK268399]	108
CCOC(=O)N1C(=O)c2ccccc2NC1(C(F)(F)F)C(F)(F)F [CBK025725]	102
Nc1nc(N)n(-c2ccccc2)n1 [CBK026515]	104
O=C(O)CCC(=O)Nc1cccc(NC(=O)c2ccc(Br)cc2)c1 [CBK300180]	84.6
COc1ccc(CN2C(=S)N(c3ccccc3)[C@H]3[C@@H]2[C@H]2OC(=O)[C@@H]3C[C@H]2O)cc1 [CBK288937]	108
CN1CCN(C(=O)c2ccc(Cl)c(S(=O)(=O)N3CCCCC3)c2)CC1 [CBK262228]	94.7
CN1CCN(C(=O)Cn2cc(C(=O)NC3CCCCC3)ccc2=O)C(c2ccccc2)C1 (centres unmarked) [CBK286102]	87.3
Cc1cc(C(=O)CSc2ccc(Cl)nn2)c(C)n1C1CC1 [CBK305512]	99.2
Fc1ccc(COc2ccc(Cl)cc2CNCc2ccccn2)cc1 [CBK269899C]	85.5
Nc1nc2c(cc1C(=O)NCc1ccccc1)CN(C(=O)CCCc1ccc(F)cc1)CC2 [CBK285887]	95.3
COC(=O)C1=C(C)OC(n2cccc2)=C(C#N)C1c1cc(OC)c(O)c(OC)c1 (centres unmarked) [CBK293994]	101
COc1cc(Cl)cc(/C=N/Nc2nc(Nc3ccc(C)c(Cl)c3)nc(N3CCOCC3)n2)c1O [CBK262436]	102
O=C(O)C1CCCN(C(=O)NCc2cccc(C(F)(F)F)c2)C1 (centres unmarked) [CBK161345]	94.5
CC(=O)NCC(=O)Nc1cnc(-c2cccc(C(F)(F)F)c2)c(-c2cccnc2)n1 [CBK036809]	103
Cc1nn(C)c(Cl)c1CN(CCC#N)Cc1ccco1 [CBK304825]	96.6
